Key:
[1] = test system: isolated rat islets of Langerhans; assay: Glucose-stimulated insulin secretion in isolated rat islets of Langerhans; type: cell-based
Method: The islets of Langerhans were isolated from the pancreas of male Wistar rats at around 10 weeks of age, according to a conventional method and using collagenase and Ficoll-Conray solution (Cryobiology, 2006, 52:90-8), and used for the activity evaluation of the compound.
The isolated islets were precultured in glucose-free Krebs Ringer Bicarbonate-Hepes buffer (KRBH: 129 mM NaCl, 4.7 mM KCl, 5.0 mM NaHCO3, 1.2 mM MgSO4, […], 2.5 mM CaCl2, 10 mM HEPES, pH 7.4) under the conditions of 37° C., 5% CO2 for 30 min and seeded in each well of a 24 well plate by 5 islets. […] The culture supernatant was recovered from each well after culturing for 1 hr, and the concentration of insulin secreted in the supernatant was measured using a commercially available measurement kit (manufactured by Morinaga Institute of Biological Science, Inc.). The insulin secretion amounts under respective stimulation conditions were calculated as secretion amounts relative to the secretion amount at 8.3 mM glucose.

KKAy mice [2] = assay: Blood glucose increase suppressive effect in diabetes model mouse after whey protein and glucose load; type: in vivo; settings: male KKAy mice, 3 mg/kg intraperitoneal
Method: 23-week-old male KKAy mice fasted overnight were randomly divided into 2 groups, and whey protein was orally administered to each mouse at 3 g/kg to induce endogenous GLP-1 secretion. At 30 min after whey protein administration, the compound of the present invention (compound 50) or administration medium (vehicle) was intraperitoneally administered to each mouse at 3 mg/kg, glucose was orally administered immediately thereafter at 2 g/kg, blood samples were collected from the tail vein over time, and the blood glucose level was measured.

human GLP-1R = biological target: T1, human GLP-1R (Homo sapiens, UniProt P43220); assay: GLP-1 receptor in vitro calcium assay (intracellular free calcium concentration change induced via GLP-1 receptor); type: cell-based; settings: for EC50: PRG48 cells transfected with human GLP-1R, compound added with 250 pM GLP-1, Ca2+ response ΔF/F, read-out: Ca EC50 value; for GLP-1 receptor action enhancing activity (vs BETP): intensity compared to BETP, activity of BETP as 1
T1 construct: expressed in transfected cells; host or cells: PEAK RAPID-derived Gα15-trans48 LD stably expressing cells (PRG48), transiently transfected with Lipofectamine 2000
T1 sequence (P43220 24-463): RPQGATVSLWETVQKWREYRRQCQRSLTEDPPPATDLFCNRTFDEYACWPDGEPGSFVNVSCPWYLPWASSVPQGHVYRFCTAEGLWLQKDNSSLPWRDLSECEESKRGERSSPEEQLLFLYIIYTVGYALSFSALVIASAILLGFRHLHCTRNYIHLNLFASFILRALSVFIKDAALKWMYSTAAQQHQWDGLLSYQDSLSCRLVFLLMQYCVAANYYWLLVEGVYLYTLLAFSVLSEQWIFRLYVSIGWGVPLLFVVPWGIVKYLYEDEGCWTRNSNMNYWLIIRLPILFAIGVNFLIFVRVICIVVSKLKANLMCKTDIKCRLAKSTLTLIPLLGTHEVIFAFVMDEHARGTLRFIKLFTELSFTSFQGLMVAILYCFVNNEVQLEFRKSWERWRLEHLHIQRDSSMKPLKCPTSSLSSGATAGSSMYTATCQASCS
How it was run: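 PRG48 cells transiently transfected with human GLP-1R and loaded with calcium dye in HEPES buffer containing probenecid. Compound added together with 250 pM GLP-1; fluorescence (Ex480/Em540) recorded before and after addition. ΔF/F computed and EC50 fitted from it.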

KKAy mice [3] = assay: Food intake-suppressive effect in diabetes model mouse; type: in vivo; settings: male KKAy mice fasted overnight, 3 mg/kg oral in simulated intestinal fluid, 4 hr after administration, vs simulated intestinal fluid group (FIG. 3)
Method: 11-week-old male KKAy mice were randomly divided into 2 groups. After fasting overnight, simulated intestinal fluid (containing 10 mM taurocholic acid, 2 mM lecithin, 55 mM maleic acid, 81.6 mM sodium hydroxide, 125 mM sodium chloride), or the compound of the present invention (compound 96) dissolved in the simulated intestinal fluid was orally administered (3 mg/kg), a commercially available feed (CRF-1, manufactured by Oriental Yeast Co., ltd.) was given and changes in the food intake was monitored.

Row | EC50 (human GLP-1R) [nM] | GLP-1 receptor action enhancing activity (vs BETP) (human GLP-1R) | SMILES | other results
1 | 1500 | 17 | CCCC[C@@H](NC(=O)[C@@H](Cc1ccccc1)NC(=O)Nc1ccc(NS(=O)(=O)c2ccc(C)cc2)cc1)C(=O)OC [Compound 33] | –
2 | 380 | 67 | CCC(CC)CNC(=O)[C@@H](Cc1ccccc1)NC(=O)Nc1ccc(NS(=O)(=O)c2ccc(C)cc2)cc1 [Compound 10] | –
3 | 1900 | 13 | Cc1ccc(S(=O)(=O)Nc2ccc(NC(=O)N[C@H](Cc3ccccc3)C(=O)NCC(C)(C)C)cc2)cc1 [Compound 4] | –
4 | 600 | 42 | CCCCCCNC(=O)[C@@H](Cc1cccnc1)NC(=O)Nc1ccc(NS(=O)(=O)c2ccc(C(C)(C)C)cc2)cc1 [Compound 96] | cumulative food consumption (KKAy mice [3]): significant suppression
5 | 930 | 27 | Cc1ccc(S(=O)(=O)Nc2ccc(NC(=O)N[C@H](Cc3ccccc3)C(=O)OC(C)(C)C)cc2)cc1 [Compound 62, tert-butyl (2R)-3-phenyl-2-{[4-(p-tolylsulfonylamino)phenyl]carbamoylamino}propanoate] | –
6 | 620 | 41 | CCc1ccc(S(=O)(=O)Nc2ccc(NC(=O)N[C@@H](Cc3ccccc3)C(=O)OC(C)(C)C)cc2)cc1 [Compound 75] | –
7 | 7 | 3578 | CCCCCCCN(C(=O)N[C@H](Cc1ccccc1)C(=O)OC(C)(C)C)c1ccc(NS(=O)(=O)c2ccc(C)cc2)cc1 [Compound 85, tert-butyl (2R)-2-({heptyl-[4-(p-tolylsulfonylamino)phenyl]carbamoyl}amino)-3-phenyl-propanoate] | –
8 | 680 | 37 | CC(C)c1ccc(S(=O)(=O)Nc2ccc(NC(=O)N[C@@H](Cc3ccccc3)C(=O)OC(C)(C)C)cc2)cc1 [Compound 72] | –

More lines, now with the values behind:

Row | SMILES | EC50 (human GLP-1R) [nM] | GLP-1 receptor action enhancing activity (vs BETP) (human GLP-1R) | other results
9 | CCCCC(CC)CNC(=O)[C@H](CC1CCCCC1)NC(=O)Nc1ccc(NS(=O)(=O)c2ccc(C(C)(C)C)cc2)cc1 (some centres unmarked) [Compound 50] | 6.8 | 3720 | insulin secretion ([1]; 30 μM compound 50 alone in buffer containing 8.3 mM glucose, 1 hr): did not affect insulin secretion; increase in insulin secretion amount as compared to 8.3 mM glucose alone ([1]; simultaneous addition of 30 μM compound 50 and 1 nM exendin-4, 8.3 mM glucose, 1 hr (FIG. 1)): about 2 fold; blood glucose at the time of peak (KKAy mice [2]; 30 min after whey protein 3 g/kg, glucose 2 g/kg oral, peak 30 min after glucose (FIG. 2A)): suppression of blood glucose increase at the time of peak; blood glucose AUC value (KKAy mice [2]; 180 min after glucose administration, p<0.05 vs vehicle (FIG. 2B)): 734.3 ± 65.9 mg·h/dL
10 | CC(C)(C)c1ccc(S(=O)(=O)Nc2ccc(NC(=O)N[C@H](CC3CCCCC3)c3nc(C(C)(C)C)no3)cc2)cc1 [Compound 82] | 16 | 1606 | –
11 | CCCCC(CC)CNC(=O)[C@@H](Cc1ccc(Cl)cc1)NC(=O)Nc1ccc(NS(=O)(=O)c2ccc(C(C)(C)C)cc2)cc1 (stereo partly drawn) [Compound 1, (2R)-2-({4-[(4-tert-butylphenyl)sulfonylamino]phenyl}carbamoylamino)-3-(4-chlorophenyl)-N-(2-ethylhexyl)propanamide] | 4.3 | – | –
12 | CCCCC(CC)CNC(=O)[C@@H](CC1CCCCC1)NC(=O)Nc1ccc(N(CCCSC)S(=O)(=O)c2ccc(C(C)(C)C)cc2)cc1 (some centres unmarked) [Compound 111] | 3.3 | 7694 | –
13 | CC(C)CCCC(C)NC(=O)[C@H](CC1CCCCC1)NC(=O)Nc1ccc(NS(=O)(=O)c2ccc(C(C)(C)C)cc2)cc1 (some centres unmarked) [Compound 56] | 3.8 | 6569 | –
14 | CC[S+]([O-])c1nc(-c2cccc(OCc3ccccc3)c2)cc(C(F)(F)F)n1 (centres unmarked) [BETP, 4-(3-benzyloxyphenyl)-2-ethylsulfinyl-6-(trifluoromethyl)pyrimidine, reference compound] | 25000 | 1 | –
